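These data come from cells grown in 96-well plates and exposed to compound for 48 hours at five concentrations. At the GI50, growth is halved.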 Calls of active or inactive are those of the source. Cut-off read from the data, not from the text of the source: active = GI50 up to about 1.1 µM and inactive = higher.
Columns and labels:
Assay in all cases: DTP human tumour cell line panel, 48 h
RXF 631 = test system: RXF 631
XF498 = test system: XF498
HOP-18 = test system: HOP-18
SNB-78 = test system: SNB-78
DMS-273 = test system: DMS-273
DMS-114 = test system: DMS-114
LXFL 529 = test system: LXFL 529
M19-MEL = test system: M19-MEL
KM-20L2 = test system: KM-20L2

Compound | GI50 (RXF 631) | GI50 (XF498) | GI50 (HOP-18) | GI50 (SNB-78) | GI50 (DMS-273) | GI50 (DMS-114) | GI50 (LXFL 529) | GI50 (M19-MEL) | GI50 (KM-20L2)
Cc1ccccc1C(=O)c1ccccc1O | > 100 µM (inactive) | > 100 µM (inactive) | > 100 µM (inactive) | > 100 µM (inactive) | > 100 µM (inactive) | > 100 µM (inactive) | > 100 µM (inactive) | > 100 µM (inactive) | > 100 µM (inactive)
O=C(Nc1cc(Cl)ccc1Cl)c1cc2ccccc2oc1=O | – | – | 20.9 µM (inactive) | – | 98.2 µM (inactive) | 78 µM (inactive) | – | > 100 µM (inactive) | > 100 µM (inactive)
N#CC(NNC(=O)c1ccccc1O)c1ccc(O)cc1 (configuration not stated) | – | – | 9.1 µM (inactive) | – | 3.32 µM (inactive) | 2.3 µM (inactive) | 4.06 µM (inactive) | 5.38 µM (inactive) | 23.4 µM (inactive)
O=C(/C=N/O)Nc1cccc(Cl)c1I | – | 46.3 µM (inactive) | – | – | > 100 µM (inactive) | 23.3 µM (inactive) | 25 µM (inactive) | 80.7 µM (inactive) | > 100 µM (inactive)
Nc1nc(O)c([N+](=O)[O-])c(NCCOCP(=O)(O)O)n1 | – | > 100 µM (inactive) | > 100 µM (inactive) | > 100 µM (inactive) | > 100 µM (inactive) | – | > 100 µM (inactive) | > 100 µM (inactive) | > 100 µM (inactive)
COc1ccc(Cc2cc(OC)c(OC)c(OC)c2)cc1 | – | – | – | 3.34 µM (inactive) | 0.104 µM (active) | – | 0.541 µM (active) | – | 0.181 µM (active)
CC(C)C(Sc1nc(-c2ccccc2)c(-c2ccccc2)[nH]1)C(=O)N/N=C/c1ccc(Cl)cc1 (configuration not stated) | – | – | – | 28.7 µM (inactive) | 18.2 µM (inactive) | 24.3 µM (inactive) | 32.1 µM (inactive) | 19.4 µM (inactive) | 20.6 µM (inactive)
NC1=NN(c2ccccc2)C(=O)C1C(=O)CCC(=O)Nc1cccc(C(F)(F)F)c1 (configuration not stated) | > 100 µM (inactive) | – | > 100 µM (inactive) | > 100 µM (inactive) | > 100 µM (inactive) | > 100 µM (inactive) | 36.8 µM (inactive) | > 100 µM (inactive) | 72.6 µM (inactive)
O=C1C[C@H]2CC3(CC[C@H]2CN1)OCCO3 | – | > 100 µM (inactive) | – | > 100 µM (inactive) | > 100 µM (inactive) | – | > 100 µM (inactive) | > 100 µM (inactive) | –
O=C(c1ccc([N+](=O)[O-])cc1[N+](=O)[O-])N(/N=C/C=C/c1ccccc1)c1nnc(-c2ccccc2)c(-c2ccccc2)n1 | – | 17.6 µM (inactive) | – | – | 23.7 µM (inactive) | 29.2 µM (inactive) | – | 36.7 µM (inactive) | > 100 µM (inactive)
CCC1(c2c(F)c(F)c(N)c(F)c2F)CCC(=O)NC1=O (configuration not stated) | – | > 100 µM (inactive) | > 100 µM (inactive) | > 100 µM (inactive) | > 100 µM (inactive) | > 100 µM (inactive) | > 100 µM (inactive) | > 100 µM (inactive) | –
C/C(=N\N=C(/S)N(C)C)c1cccc[n+]1[O-] | > 100 µM (inactive) | – | > 100 µM (inactive) | > 100 µM (inactive) | 12.5 µM (inactive) | 0.482 µM (active) | 0.466 µM (active) | > 100 µM (inactive) | 5.61 µM (inactive)
CO/S(=N/S(=O)(=O)c1ccccc1)c1ccccc1[N+](=O)[O-] (configuration not stated) | > 100 µM (inactive) | > 100 µM (inactive) | > 100 µM (inactive) | – | > 100 µM (inactive) | – | > 100 µM (inactive) | > 100 µM (inactive) | > 100 µM (inactive)
O=C(CC(=O)n1nc(-c2ccccc2)c(/N=N/c2ccccc2Cl)c1-c1ccccc1)Nc1ccc(Cl)cc1 | – | > 100 µM (inactive) | > 100 µM (inactive) | – | > 64.3 µM (inactive) | > 41.7 µM (inactive) | > 100 µM (inactive) | 21.7 µM (inactive) | > 57.3 µM (inactive)
CCP(C)(=O)CC | > 100 µM (inactive) | > 100 µM (inactive) | > 100 µM (inactive) | > 100 µM (inactive) | > 100 µM (inactive) | > 100 µM (inactive) | > 100 µM (inactive) | > 100 µM (inactive) | > 100 µM (inactive)
O=C1C(=O)N(c2ccc(Cl)c(Cl)c2)C(=O)C(=O)C1c1nc2ccccc2o1 | 43.5 µM (inactive) | 51.5 µM (inactive) | – | 66.4 µM (inactive) | 70.3 µM (inactive) | – | 93.8 µM (inactive) | 58.7 µM (inactive) | > 100 µM (inactive)
O=C(CCC(=O)Nc1ccc(Cl)c(Cl)c1)CC(=O)c1ccc(Cl)cc1 | – | > 100 µM (inactive) | 80.7 µM (inactive) | – | > 100 µM (inactive) | > 100 µM (inactive) | 83.9 µM (inactive) | > 100 µM (inactive) | > 100 µM (inactive)
O=c1[nH]c(=O)n(C2CC(O)C(CO)O2)cc1COCC(F)(F)F (configuration not stated) | > 100 µM (inactive) | > 100 µM (inactive) | – | > 100 µM (inactive) | > 100 µM (inactive) | > 100 µM (inactive) | > 100 µM (inactive) | > 100 µM (inactive) | > 100 µM (inactive)
c1ccc(SCCCC(Sc2ccccc2)Sc2ccccc2)cc1 | – | > 100 µM (inactive) | – | > 100 µM (inactive) | > 100 µM (inactive) | > 100 µM (inactive) | > 100 µM (inactive) | > 100 µM (inactive) | > 100 µM (inactive)
COC(=O)C1=CC(=O)[C@@H]2CCCC[C@H]12 | > 100 µM (inactive) | – | > 100 µM (inactive) | > 100 µM (inactive) | > 100 µM (inactive) | > 100 µM (inactive) | > 100 µM (inactive) | > 100 µM (inactive) | > 100 µM (inactive)
C/C(CN1C(=O)c2ccccc2C1=O)=N\NS(=O)(=O)c1ccc(Br)cc1 | – | – | > 100 µM (inactive) | > 100 µM (inactive) | > 100 µM (inactive) | 10.9 µM (inactive) | > 100 µM (inactive) | > 100 µM (inactive) | > 100 µM (inactive)
CC(C)(C)/N=C1/CC(C)(C)c2ccccc2/C(=N\c2ccccc2)S1 | – | 21.1 µM (inactive) | – | 41.5 µM (inactive) | 32.1 µM (inactive) | 26.7 µM (inactive) | 29.9 µM (inactive) | 36 µM (inactive) | 31.8 µM (inactive)
C#CCOCn1cnc2c(N)ncnc21 | > 100 µM (inactive) | > 100 µM (inactive) | > 100 µM (inactive) | > 100 µM (inactive) | > 100 µM (inactive) | > 100 µM (inactive) | > 100 µM (inactive) | > 100 µM (inactive) | > 100 µM (inactive)
O=C1C=C(Br)C(=O)C12CCc1ccccc12 (configuration not stated) | – | 15.3 µM (inactive) | 7.53 µM (inactive) | 22.6 µM (inactive) | 18.3 µM (inactive) | 20.7 µM (inactive) | 4.45 µM (inactive) | 19 µM (inactive) | 26.7 µM (inactive)
